Patent US20220323406A1, “METHODS AND COMPOSITIONS FOR DIFFERENTIATING STEM CELLS” (Massachusetts Institute of Technology, priority 2019, published 2022)
Where a name gives a salt, the structure may show the parent alone.

Legend:
[1] = tested on: ENR+CD organoids (ISC to Paneth cell differentiation); assay: Primary screen: basal (non-stimulated) lysozyme secretion LYZ.NS, 2.5-D 384-well ENR+CD organoid differentiation; assay type: cell-based, mouse; conditions: primary screen; for Z.LYZ.NS: standard z score
Excerpt: (§1) High-throughput screening.

ENR+CD organoids = assay: Primary screen: ATP (CellTiter-Glo 3D, CTG) cell number/viability, 2.5-D 384-well ENR+CD organoids; conditions: primary screen; for Z.CTG: standard z score;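 on all read-outs here: compounds given at plating and again on day 3 over a 6-day differentiation from ENR+CV stem-cell-enriched precursors, ATP measured on day 6, plate median as control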
[2] = tested on: ENR+CD organoids (ISC to Paneth cell differentiation); assay: Primary screen: CCh-stimulated lysozyme secretion LYZ.S, 2.5-D 384-well ENR+CD organoid differentiation; assay type: cell-based, mouse; conditions: primary screen
Excerpt: as §1

[3] = dose 0.08 uM, FC relative to plate median
[4] = dose 0.40 uM, FC relative to plate median
[5] = dose 2.00 uM, FC relative to plate median
[6] = dose 10.00 uM, FC relative to plate median

| Compound | Z.LYZ.NS (standard z score) ([1]; dose 0.08 uM) | Z.LYZ.NS (standard z score) ([1]; dose 0.40 uM) | Z.LYZ.NS (standard z score) ([1]; dose 2.00 uM) | Z.LYZ.NS (standard z score) ([1]; dose 10.00 uM) | Dose.FC.LYZ.NS [1, 3] | Z.LYZ.NS ([1]; dose 0.08 uM) | Dose.FC.LYZ.NS [1, 4] | Z.LYZ.NS ([1]; dose 0.40 uM) | Dose.FC.LYZ.NS [1, 5] | Z.LYZ.NS ([1]; dose 2.00 uM) | Dose.FC.LYZ.NS [1, 6] | Z.LYZ.NS ([1]; dose 10.00 uM) | Dose.FC.CTG (ENR+CD organoids; [3]) | Dose.FC.CTG (ENR+CD organoids; [4]) | Dose.FC.CTG (ENR+CD organoids; [5]) | Dose.FC.CTG (ENR+CD organoids; [6]) | Dose.FC.LYZ.S [2, 3] | Dose.FC.LYZ.S [2, 4] | Dose.FC.LYZ.S [2, 5] | Dose.FC.LYZ.S [2, 6] | further results |
| --- | --- | --- | --- | --- | --- | --- | --- | --- | --- | --- | --- | --- | --- | --- | --- | --- | --- | --- | --- | --- | --- |
| Cc1c(-c2ccc(O)cc2)n(Cc2ccc(OCCN3CCCCCC3)cc2)c2ccc(O)cc12 [Bazedoxifene HCl] | 1.386 | 0.229 | −1.267 | −2.442 | – | – | – | – | – | – | – | – | – | – | – | – | – | – | – | – | Dose.FC.LYZ.NS ([1]; dose 0.08 uM): 0.159 log2 fold change; Dose.FC.LYZ.NS ([1]; dose 0.40 uM): 0.026 log2 fold change; Dose.FC.LYZ.NS ([1]; dose 2.00 uM): −0.146 log2 fold change; Dose.FC.LYZ.NS ([1]; dose 10.00 uM): −0.280 log2 fold change; Dose.FC.CTG (ENR+CD organoids; dose 0.08 uM): 0.422 log2 fold change; Dose.FC.CTG (ENR+CD organoids; dose 0.40 uM): 0.365 log2 fold change; Dose.FC.CTG (ENR+CD organoids; dose 2.00 uM): −0.780 log2 fold change; Dose.FC.CTG (ENR+CD organoids; dose 10.00 uM): −1.148 log2 fold change; Dose.FC.LYZ.S ([2]; dose 0.08 uM): 0.096 log2 fold change; Dose.FC.LYZ.S ([2]; dose 0.40 uM): 0.065 log2 fold change; Dose.FC.LYZ.S ([2]; dose 2.00 uM): −0.189 log2 fold change; Dose.FC.LYZ.S ([2]; dose 10.00 uM): −0.361 log2 fold change |
| CNC(=O)c1ccc2cc([C@@]3(O)CCn4cncc43)ccc2c1 [TAK-700 (Orteronel)] | – | – | – | – | 0.176 log2 fold change | 1.535 | 0.182 log2 fold change | 1.585 | 0.121 log2 fold change | 1.058 | −0.002 log2 fold change | −0.018 | −0.276 log2 fold change | −0.024 log2 fold change | −0.084 log2 fold change | 0.092 log2 fold change | 0.113 log2 fold change | 0.090 log2 fold change | 0.093 log2 fold change | 0.032 log2 fold change | Z.CTG (ENR+CD organoids; dose 0.08 uM): −0.659; Z.CTG (ENR+CD organoids; dose 0.40 uM): −0.056; Z.CTG (ENR+CD organoids; dose 2.00 uM): −0.202; Z.CTG (ENR+CD organoids; dose 10.00 uM): 0.219 |
| O=C1NC(=O)C(c2ccccc2[N+](=O)[O-])=C1Nc1ccc(O)c(Cl)c1 [SB415286] | – | – | – | – | 0.145 log2 fold change | 1.262 | 0.012 log2 fold change | 0.101 | 0.118 log2 fold change | 1.024 | −0.016 log2 fold change | −0.136 | 0.221 log2 fold change | −0.004 log2 fold change | −0.097 log2 fold change | 0.123 log2 fold change | 0.159 log2 fold change | −0.008 log2 fold change | −0.053 log2 fold change | −0.042 log2 fold change | Z.CTG (ENR+CD organoids; dose 0.08 uM): 0.527; Z.CTG (ENR+CD organoids; dose 0.40 uM): −0.011; Z.CTG (ENR+CD organoids; dose 2.00 uM): −0.231; Z.CTG (ENR+CD organoids; dose 10.00 uM): 0.293 |
| CN(C)CCc1c[nH]c2ccc(Cn3cncn3)cc12 [Rizatriptan Benzoate] | – | – | – | – | 0.070 log2 fold change | 0.613 | 0.148 log2 fold change | 1.289 | 0.027 log2 fold change | 0.238 | 0.000 log2 fold change | −0.003 | 0.214 log2 fold change | 0.109 log2 fold change | 0.126 log2 fold change | −0.054 log2 fold change | 0.179 log2 fold change | 0.019 log2 fold change | −0.009 log2 fold change | 0.105 log2 fold change | – |
| NC(=O)c1cccc(-c2cc(Nc3ccc(OC(F)(F)F)cc3)ncn2)c1 [GNF-2] | 1.386 | −0.206 | 0.102 | −0.286 | – | – | – | – | – | – | – | – | – | – | – | – | – | – | – | – | Dose.FC.LYZ.NS (log2 fold change) ([1]; dose 0.08 uM): 0.159; Dose.FC.LYZ.NS (log2 fold change) ([1]; dose 0.40 uM): −0.024; Dose.FC.LYZ.NS (log2 fold change) ([1]; dose 2.00 uM): 0.012; Dose.FC.LYZ.NS (log2 fold change) ([1]; dose 10.00 uM): −0.033; Dose.FC.CTG (log2 fold change) (ENR+CD organoids; dose 0.08 uM): 0.157; Z.CTG (standard z score) (ENR+CD organoids; dose 0.08 uM): 0.376; Dose.FC.CTG (log2 fold change) (ENR+CD organoids; dose 0.40 uM): 0.090; Z.CTG (standard z score) (ENR+CD organoids; dose 0.40 uM): 0.214; Dose.FC.CTG (log2 fold change) (ENR+CD organoids; dose 2.00 uM): 0.074; Z.CTG (standard z score) (ENR+CD organoids; dose 2.00 uM): 0.176; Dose.FC.CTG (log2 fold change) (ENR+CD organoids; dose 10.00 uM): 0.100; Z.CTG (standard z score) (ENR+CD organoids; dose 10.00 uM): 0.240; Dose.FC.LYZ.S (log2 fold change) ([2]; dose 0.08 uM): 0.121; Dose.FC.LYZ.S (log2 fold change) ([2]; dose 0.40 uM): 0.001; Dose.FC.LYZ.S (log2 fold change) ([2]; dose 2.00 uM): 0.046; Dose.FC.LYZ.S (log2 fold change) ([2]; dose 10.00 uM): −0.015 |
